In the Deep4Chem optical property database one finds absorption maximum data, which are given here for 34 compounds.

The nature of this data set: solvent given as SMILES.

Where “and” joins values, the source holds several entries; their conditions need not be identical. Identical values can stand only once.

In the case of `Cc1ccc(N(c2ccccc2)c2ccc3ccc4c(N(c5ccccc5)c5ccc(C)cc5)ccc5ccc2c3c54)cc1`, the absorption maximum (in ClCCl) came out at 428 nm.
On to `CCN1c2ccc(/C=N/Nc3ccccn3)cc2Sc2cc(-c3cccc4ccccc34)ccc21`, for which the absorption maximum is 378 nm (in C1CCOC1), 383 nm (in CS(C)=O), 378 nm (in Cc1ccccc1) and 379 nm (in ClCCl).
In turn, `F[B-]1(F)n2c(cc(Br)c2Br)C(c2ccccc2)=C2C=C(Br)C(c3ccc[nH]3)=[N+]21` registered an absorption maximum (in ClC(Cl)Cl) of 626 nm.
`CNc1ccc(/C=C/C(=O)OC)cc1`: under “in O”, the absorption maximum worked out at 347.28 nm.
With `CCOC(=O)c1cc(C(=O)OCC)c2cc(OC)ccc2n1`, the absorption maximum (in CCO) is reported as 355 nm.
In turn, `CN1C(=CC2=C([O-])C(=O)C2=C(C#N)C#N)C=Cc2ccccc21` yielded an absorption maximum (in CCO) of 515 nm.
As to `CCN(CC)c1ccc2cc(-c3nc4ccccc4s3)c(=O)oc2c1`, the absorption maximum runs as follows: (in C1CCCCC1) 425.4 nm; (in CC1CCCCC1) 425.4 nm; (in CC#N) 454 nm and 447 nm; (in CCC(C)CC) 425 nm; (in CCCCCC) 425 nm; (in CCO) 460 nm. The compound also showed an absorption maximum (in CCOC(C)=O) of 439.4 nm.
Regarding `C[Si](C)(C)c1ccc(-c2ccc(-c3ccc(-c4ccc(-c5ccc([Si](C)(C)C)cc5)s4)c4nsnc34)s2)cc1`, where the note is “in C1CCOC1”, the absorption maximum came to 495 nm.
With `CCCCCCc1ccc(-n2c3[n+](c4c5ccccc5c5ccccc5c42)[B-](C)(C)c2ccccc2-3)cc1`, the absorption maximum (in C1CCOC1) is 359 nm, the absorption maximum (in CC#N) came out at 359 nm, the absorption maximum (in Cc1ccccc1) stood at 361 nm and the absorption maximum (in ClCCl) is 361 nm.
`CCCCCCCCCCCCOc1ccc(C#CC(C#Cc2ccc(OCCCCCCCCCCCC)cc2)=Cc2cc(C=C(C#Cc3ccc(OCCCCCCCCCCCC)cc3)C#Cc3ccc(OCCCCCCCCCCCC)cc3)cc(C=C(C#Cc3ccc(OCCCCCCCCCCCC)cc3)C#Cc3ccc(OCCCCCCCCCCCC)cc3)c2)cc1` came in with an absorption maximum (in CCOC(C)=O) of 347 nm.
On to `CN1C(=Cc2c([O-])c(=O)/c2=N\C#N)C(C)(C)c2ccccc21`, for which, for the setting “in CCO”, the absorption maximum stood at 436 nm.
In turn, `CCCCCOc1cc2oc(=O)c3c4occc4c4ccc5cccc6c(c1)c2c3c4c56` came in with an absorption maximum (in C1CCOC1) of 422 nm.
`CCN(CC)c1ccc2c(c1)oc(=O)c1c(C)nc3c(c(-c4ccccc4)nn3-c3ccccc3)c12` had an absorption maximum (in ClCCl) of 410 nm.
As for `COc1ccc2c(c1)-c1ccccc1C2=O`, the absorption maximum runs as follows: (in C1CCCCC1) 365 nm; (in CC#N) 379 nm; (in CCO) 387 nm.
On to `Cc1ccc(C2=C3C=CC=[N+]3[B-](F)(F)n3cccc32)cc1`, for which the absorption maximum runs as follows: (in C1CCCCC1) 500.5 nm; (in CC#N) 496.5 nm; (in CCO) 497.5 nm; (in CCOC(C)=O) 497 nm; (in CO) 496 nm; (in OCC(F)(F)F) 493 nm.
The compound `CN1C(=CC2=C([O-])C(=Cc3sc4ccccc4[n+]3C)C2=C(C#N)C#N)C(C)(C)c2ccccc21` had an absorption maximum (in ClC(Cl)Cl) of 691 nm.
As for `CC/[NH+]=c1\cc2oc3cc(NCCC(=O)NC(C(=O)OC)C(C)C)c4ccccc4c3nc-2cc1C` (configuration not stated), the absorption maximum is 590 nm (in CCO) and 580 nm (in O).
With `Cc1cc2c3ccccc3n(C)c2c2c1c1ccccc1n2C`, the absorption maximum (in ClCCl) was determined as 329 nm.
Take `O=Cc1ccc(C2=Cc3ccccc3P2(=O)c2ccccc2)cc1` (configuration not stated): under “in ClCCl”, the absorption maximum is on record as 357 nm.
As to `C[P+]1(c2ccccc2)c2ccccc2-c2sc3ccccc3c21` (configuration not stated), the absorption maximum runs as follows: (in CC#N) 335 nm; (in CCO) 336 nm; (in ClCCl) 340 nm.
The compound `CCCCCCCCc1ccc(-c2c3cc(-c4cc(CCCCCCCC)c(-c5ccc(-c6sc(/C=C7\SC(SCC)=NC7=O)cc6CCCCCCCC)s5)s4)sc3c(-c3ccc(CCCCCCCC)s3)c3cc(-c4cc(CCCCCCCC)c(-c5ccc(-c6sc(/C=C7\SC(SCC)=NC7=O)cc6CCCCCCCC)s5)s4)sc23)s1` returned an absorption maximum (in ClC(Cl)Cl) of 500 nm.
Take `COc1ccc(/C=C/C2=[O+][B-](F)(F)OC(/C=C/c3ccc(OC)cc3)=C2c2ccc(OC)cc2)cc1`: for the setting “in ClCCl”, the absorption maximum is on record as 506 nm.
On the same count and under the same terms, then `COc1ccc(-c2cc(-c3ccc(C#N)cc3)nn2C)cc1`, with 281 nm.
Under “in ClC(Cl)Cl”, `COc1ccc2c(C=C(C#N)C#N)cc3ccc4cc(C=C(C#N)C#N)c5ccc(OC)cc5c4c3c2c1` gave an absorption maximum of 456 nm.
`CCOC(=O)c1c2c3c(ccc(F)c3c3cc4ccccc4cc13)N(C)C2=O` displayed an absorption maximum (in CC#N) of 410 nm.
Where the note is “in C1CCOC1”, `N#Cc1c(N2CCCCC2)cc(-c2ccccc2)c2c1C(=O)c1ccccc1-2` came in with an absorption maximum of 348 nm.
As for `COc1ccc(C2=C3C(C)=CC(C=Cc4ccc(C(=O)OC5C[C@H]6CCC5(C)C6(C)C)cc4)=[N+]3[B-](F)(F)n3c(/C=C/c4ccc(C(=O)OC5CC6CCC5(C)C6(C)C)cc4)cc(C)c32)cc1` (some centres not stated), the absorption maximum (in Cc1ccccc1) is given as 640 nm.
Compound `Cc1ccc(/C=C/c2nc(-c3ccc([N+](=O)[O-])cc3)[nH]c2/C=C/c2ccc(C)cc2)cc1` yielded an absorption maximum (in ClCCl) of 445 nm.
With `COC(=O)C(NC(=O)CCNc1cccc2ccccc12)c1ccccc1` (configuration not stated), where the note is “in CCO”, the absorption maximum is recorded as 330 nm.
`CCCCCCc1cc(B(c2c(C)cc(C)cc2C)c2c(C)cc(C)cc2C)c(-c2sc(CCCCCC)cc2P(=O)(c2ccccc2)c2ccccc2)s1` returned an absorption maximum (in CO) of 418 nm.
As to `Cc1csc(C)c1C1=C(c2c(C)sc(-c3ccc(-c4nc(-c5ccccc5)c(-c5ccccc5)[nH]4)cc3)c2C)C(F)(F)C(F)(F)C1(F)F`, the absorption maximum (in C1CCOC1) is on record as 339 nm.
Take `CCCCCCCCCCOc1ccc2c3c(oc2c1)C1=C2C(=O)N4C=Cc5c(oc6cc(OCCCCCCCCCC)ccc56)C4=C2C(=O)N1C=C3`: the absorption maximum is, setting by setting: (in CN(C)C=O) 648 nm; (in ClC(Cl)Cl) 648 nm.
In turn, `CCOC(=O)c1sc(SC)c2c(=O)n(C)nnc12` gave an absorption maximum (in C1CCOC1) of 387.5 nm; an absorption maximum (in CC#N) of 388 nm; an absorption maximum (in CCO) of 391 nm; an absorption maximum (in CN(C)C=O) of 391.5 nm; an absorption maximum (in CO) of 391.5 nm; an absorption maximum (in CS(C)=O) of 393.5 nm.
With `Cc1cccn2c1cc1c3ccccc3nc(-c3ccco3)c12`, the absorption maximum (in CS(C)=O) stood at 400 nm.
